Patent US8192962B2, “Processes for detecting toxic substances” (Daikin Industries, Ltd., priority 2001, dated 2012)

Test system: DNA repair protein genes
Test: DNA chip mRNA expression in yeast, DNA repair protein genes (Table 3)
Type: cell-based, Saccharomyces cerevisiae S288C
Conditions: incubated two hours, concentrations as in the 1st table
Procedure: Yeast (Saccharomyces cerevisiae S288C (α SUC2mal mel gap2 CUP1)) were incubated at 25° C. on YPD medium (yeast extract 1%, polypepton 2%, glucose 2%). One of toxic chemical substances was added to the cells at logarithmic growth phase, and the cells were further incubated for two hours. Cells were cultured without any chemical substance in the same condition, and were used as control. Concentrations of the chemical substances were defined to inhibit the growth of the yeast but not lead to death.
After completion of the incubation, the culture was centrifuged to collect the cells. To the cells, sodium acetate buffer (50 mM sodium acetate, 10 mM EDTA, 1% SDS) was added, and the mixture was shaken at 65° C. for five minutes, followed by returning to room temperature, and obtaining the supernatant, of which the procedures were repeated two times. To the supernatant, ½ amount of a solution of phenol/chloroform was added, and the mixture was centrifuged to give a supernatant, which was added with an equal amount of chloroform, and the mixture was centrifuged to give a supernatant. To the supernatant, an equal amount of isopropanol containing 0.3 M sodium acetate was added, and the mixture was allowed to stand at room temperature for 30 minutes, after which the mixture was centrifuged to give a sediment of the whole RNAs. Seventy % ethanol was added to the sediment, and the mixture was again centrifuged to give a sediment, which was then dried and dissolved in water. mRNA was isolated from the whole RNAs as followings. In view of the fact that a poly A chain is attached to the 3′ terminus of mRNA, a polynucleotide having a poly T structure which was immobilized on the surface of latex beads was used to trap the mRNA, and then the mRNA was washed and eluted with spine column (Oligotex-dT30<Super>mRNA Purification Kit, Takara). Reverse transcription of the mRNA was conducted with a reverse transcriptase (Super Script II Reverse Transcriptase; catalogue No. 18064-014, GibcoBRL) using fluorescence-labeled nucleotides to give cDNAs that were introduced with Cy3-dUTP or Cy5-dUTP during the reverse transcription.
The labeled cDNAs were dissolved in TE buffer (10mM Tris-HCl/1 mM EDTA, pH8.0), and the solution was dropped on the DNA chip containing the whole genes of yeast (DNA Chip Research Inc. Japan) so that the cDNAs were hybridized on the DNA chip at 65° C. for over 12 hours. The fluoresces intensity of the DNA chip was read with a scanner, and the ratio relative to the fluorescence intensity resulting from the absence of chemical substance was estimated as the following, which is shown in Tables 1 to 9: […]

O=[N+]([O-])c1cc[n+]([O-])c2ccccc12 [(5), 4-nitroquinolin-N-oxide]
The level of expressed mRNA in the presence of chemical substance/The level of expressed mRNA in the absence of chemical substance (yeast gene YAL015C): 1.1 | The level of expressed mRNA in the presence of chemical substance/The level of expressed mRNA in the absence of chemical substance (yeast gene YAR007C): 1.5 | The level of expressed mRNA in the presence of chemical substance/The level of expressed mRNA in the absence of chemical substance (yeast gene YBL019W): 1.0 | The level of expressed mRNA in the presence of chemical substance/The level of expressed mRNA in the absence of chemical substance (yeast gene YBR073W): 1.2 | The level of expressed mRNA in the presence of chemical substance/The level of expressed mRNA in the absence of chemical substance (yeast gene YBR272C): 1.1 | The level of expressed mRNA in the presence of chemical substance/The level of expressed mRNA in the absence of chemical substance (yeast gene YCR014C): 1.2 | The level of expressed mRNA in the presence of chemical substance/The level of expressed mRNA in the absence of chemical substance (yeast gene YDL017W): 1.2 | The level of expressed mRNA in the presence of chemical substance/The level of expressed mRNA in the absence of chemical substance (yeast gene YDL059C): 1.2 | The level of expressed mRNA in the presence of chemical substance/The level of expressed mRNA in the absence of chemical substance (yeast gene YDL200C): 1.1 | The level of expressed mRNA in the presence of chemical substance/The level of expressed mRNA in the absence of chemical substance (yeast gene YDR054C): 0.7 | The level of expressed mRNA in the presence of chemical substance/The level of expressed mRNA in the absence of chemical substance (yeast gene YDR369C): 1.0 | The level of expressed mRNA in the presence of chemical substance/The level of expressed mRNA in the absence of chemical substance (yeast gene YEL019C): 0.9 | The level of expressed mRNA in the presence of chemical substance/The level of expressed mRNA in the absence of chemical substance (yeast gene YEL037C): 0.5 | The level of expressed mRNA in the presence of chemical substance/The level of expressed mRNA in the absence of chemical substance (yeast gene YER162C): 0.9 | The level of expressed mRNA in the presence of chemical substance/The level of expressed mRNA in the absence of chemical substance (yeast gene YFL014W): 1.0 | The level of expressed mRNA in the presence of chemical substance/The level of expressed mRNA in the absence of chemical substance (yeast gene YGL058W): 1.0 | The level of expressed mRNA in the presence of chemical substance/The level of expressed mRNA in the absence of chemical substance (yeast gene YGL091C): 0.8 | The level of expressed mRNA in the presence of chemical substance/The level of expressed mRNA in the absence of chemical substance (yeast gene YGL127C): 1.3 | The level of expressed mRNA in the presence of chemical substance/The level of expressed mRNA in the absence of chemical substance (yeast gene YGL163C): 1.5 | The level of expressed mRNA in the presence of chemical substance/The level of expressed mRNA in the absence of chemical substance (yeast gene YGL249W): 1.1 | The level of expressed mRNA in the presence of chemical substance/The level of expressed mRNA in the absence of chemical substance (yeast gene YGR180C): 2.0 | The level of expressed mRNA in the presence of chemical substance/The level of expressed mRNA in the absence of chemical substance (yeast gene YGR231C): 1.3 | The level of expressed mRNA in the presence of chemical substance/The level of expressed mRNA in the absence of chemical substance (yeast gene YGR258C): 1.5 | The level of expressed mRNA in the presence of chemical substance/The level of expressed mRNA in the absence of chemical substance (yeast gene YHR164C): 0.9 | The level of expressed mRNA in the presence of chemical substance/The level of expressed mRNA in the absence of chemical substance (yeast gene YIL036W): 0.9 | The level of expressed mRNA in the presence of chemical substance/The level of expressed mRNA in the absence of chemical substance (yeast gene YIL072W): 1.5 | The level of expressed mRNA in the presence of chemical substance/The level of expressed mRNA in the absence of chemical substance (yeast gene YIL143C): 0.8 | The level of expressed mRNA in the presence of chemical substance/The level of expressed mRNA in the absence of chemical substance (yeast gene YIL153W): 1.0 | The level of expressed mRNA in the presence of chemical substance/The level of expressed mRNA in the absence of chemical substance (yeast gene YIR002C): 1.2 | The level of expressed mRNA in the presence of chemical substance/The level of expressed mRNA in the absence of chemical substance (yeast gene YJL026W): 1.7 | The level of expressed mRNA in the presence of chemical substance/The level of expressed mRNA in the absence of chemical substance (yeast gene YJR046W): 0.8 | The level of expressed mRNA in the presence of chemical substance/The level of expressed mRNA in the absence of chemical substance (yeast gene YJR052W): 1.0 | The level of expressed mRNA in the presence of chemical substance/The level of expressed mRNA in the absence of chemical substance (yeast gene YKL145W): 1.4 | The level of expressed mRNA in the presence of chemical substance/The level of expressed mRNA in the absence of chemical substance (yeast gene YLR103C): 1.0 | The level of expressed mRNA in the presence of chemical substance/The level of expressed mRNA in the absence of chemical substance (yeast gene YLR233C): 1.2 | The level of expressed mRNA in the presence of chemical substance/The level of expressed mRNA in the absence of chemical substance (yeast gene YLR288C): 1.7 | The level of expressed mRNA in the presence of chemical substance/The level of expressed mRNA in the absence of chemical substance (yeast gene YML032C): 1.0 | The level of expressed mRNA in the presence of chemical substance/The level of expressed mRNA in the absence of chemical substance (yeast gene YML058W): 0.6 | The level of expressed mRNA in the presence of chemical substance/The level of expressed mRNA in the absence of chemical substance (yeast gene YMR035W): 0.8 | The level of expressed mRNA in the presence of chemical substance/The level of expressed mRNA in the absence of chemical substance (yeast gene YMR072W): 1.7 | The level of expressed mRNA in the presence of chemical substance/The level of expressed mRNA in the absence of chemical substance (yeast gene YMR096W): 1.0 | The level of expressed mRNA in the presence of chemical substance/The level of expressed mRNA in the absence of chemical substance (yeast gene YMR284W): 0.8 | The level of expressed mRNA in the presence of chemical substance/The level of expressed mRNA in the absence of chemical substance (yeast gene YNL213C): 1.3 | The level of expressed mRNA in the presence of chemical substance/The level of expressed mRNA in the absence of chemical substance (yeast gene YNL250W): 0.8 | The level of expressed mRNA in the presence of chemical substance/The level of expressed mRNA in the absence of chemical substance (yeast gene YNL261W): 0.7 | The level of expressed mRNA in the presence of chemical substance/The level of expressed mRNA in the absence of chemical substance (yeast gene YNL312W): 1.4 | The level of expressed mRNA in the presence of chemical substance/The level of expressed mRNA in the absence of chemical substance (yeast gene YOL043C): 1.2 | The level of expressed mRNA in the presence of chemical substance/The level of expressed mRNA in the absence of chemical substance (yeast gene YOR005C): 1.3 | The level of expressed mRNA in the presence of chemical substance/The level of expressed mRNA in the absence of chemical substance (yeast gene YOR386W): 1.2 | The level of expressed mRNA in the presence of chemical substance/The level of expressed mRNA in the absence of chemical substance (yeast gene YPL022W): 0.8 | The level of expressed mRNA in the presence of chemical substance/The level of expressed mRNA in the absence of chemical substance (yeast gene YPL164C): 1.2 | The level of expressed mRNA in the presence of chemical substance/The level of expressed mRNA in the absence of chemical substance (yeast gene YPL194W): 1.3 | The level of expressed mRNA in the presence of chemical substance/The level of expressed mRNA in the absence of chemical substance (yeast gene YPR025C): 1.6

C[S+](C)[O-] [(15), dimethylsulfoxide]
The level of expressed mRNA in the presence of chemical substance/The level of expressed mRNA in the absence of chemical substance (yeast gene YBR272C): 0.5 | The level of expressed mRNA in the presence of chemical substance/The level of expressed mRNA in the absence of chemical substance (yeast gene YCR014C): 0.7 | The level of expressed mRNA in the presence of chemical substance/The level of expressed mRNA in the absence of chemical substance (yeast gene YDL059C): 0.7 | The level of expressed mRNA in the presence of chemical substance/The level of expressed mRNA in the absence of chemical substance (yeast gene YDR054C): 1.6 | The level of expressed mRNA in the presence of chemical substance/The level of expressed mRNA in the absence of chemical substance (yeast gene YEL037C): 1.6 | The level of expressed mRNA in the presence of chemical substance/The level of expressed mRNA in the absence of chemical substance (yeast gene YGL091C): 0.7 | The level of expressed mRNA in the presence of chemical substance/The level of expressed mRNA in the absence of chemical substance (yeast gene YGL249W): 0.7 | The level of expressed mRNA in the presence of chemical substance/The level of expressed mRNA in the absence of chemical substance (yeast gene YGR180C): 1.3 | The level of expressed mRNA in the presence of chemical substance/The level of expressed mRNA in the absence of chemical substance (yeast gene YIL072W): 1.4 | The level of expressed mRNA in the presence of chemical substance/The level of expressed mRNA in the absence of chemical substance (yeast gene YIL143C): 1.3 | The level of expressed mRNA in the presence of chemical substance/The level of expressed mRNA in the absence of chemical substance (yeast gene YNL250W): 1.3 | The level of expressed mRNA in the presence of chemical substance/The level of expressed mRNA in the absence of chemical substance (yeast gene YNL261W): 0.7 | The level of expressed mRNA in the presence of chemical substance/The level of expressed mRNA in the absence of chemical substance (yeast gene YPL164C): 1.3
